Converted amounts (≈) assume the structure as drawn. Like-named read-outs stand apart in the source and are kept apart here.
Columns and labels:
[1] = Measured solubility in buffer, LC-MS/MS; type: physicochemical; conditions: aqueous buffer, thermodynamic from solid
Method: […] The mixture was vortexed and a magnetic stirring bar was subsequently added to the vial. The vial was placed on a magnetic stirrer with constant stirring for 16-24 hours at room temperature. The pH of the top layer solution was measured. Subsequently, 200 μL of the top layer solution was placed in a 1.5 mL microcentrifuge tube and centrifuged at 18,000 g for 10 min at room temperature. A 10 μL aliquot of supernatant was added to 990 μL of methanol:water (1/:1, v/v) and vortexed. Then, one volume of acetonitrile containing internal standard was added to one volume of the above 100-fold diluted solution and the resulting solution was vortexed and placed in 96-well plate for LC-MS/MS analysis. […] LC-MS-MS analysis was performed utilizing multiple reaction monitoring for detection of characteristic ions for each test compound, additional related analytes and internal standard.

[2] = Stability in simulated gastric fluid (SGF); type: in vitro ADME
Method: (§1) The stability of exemplary compounds in simulated gastric fluid (SGF) and simulated intestinal fluid (SIF) was tested according to the following protocol.

[3] = Stability in simulated intestinal fluid (SIF); type: in vitro ADME
Method: as §1

[4] = Rat liver microsomal stability; type: in vitro ADME
Method: (§2) For several compounds only human liver microsomal stability was tested. […] The microsomal assays were carried out with and without the addition of NADPH at a final concentration of 1 mM. For negative control samples, NADPH reagent was not added. […] Note that compounds undergo only Phase I metabolism in liver microsomes.
(§3) CLint=the intrinsic hepatic clearance (uL/min/mg), where CLint is equal to 0.693/(t1/2×Cmp)

in vitro [5] = type: in vitro ADME, human
Method: as §2

[6] = Mouse liver microsomal stability; type: in vitro ADME
Method: as §2, §3
(§4) Certain compounds were also tested in mice and dog liver microsome assays according to the protocol outlined above. […].

[7] = Dog liver microsomal stability; type: in vitro ADME
Method: as §2, §3, §4

in vitro [8] = experiment: in vitro
Mouse plasma stability = type: in vitro ADME; conditions: 2 μg/mL, 37° C.
Method: (§5) For each test compound, samples at a final concentration of 2 μg/mL were prepared in blank plasma of selected species. All samples were incubated at 37° C. on a 150-RPM orbital shaker, and an aliquot was removed at pre-determined time points (0, 15, 30, 60, and 120 minutes). Samples were precipitated with three volumes of acetonitrile containing propranolol as internal standard, and centrifuged for 10 min at 2000 g before LC/MS/MS analysis of the supernatant solutions.

Dog plasma stability = type: in vitro ADME
Method: as §5

[9] = Pharmacokinetic study with Compound 111 (IV 5 mg/kg, PO 25 mg/kg); type: in vivo; conditions: analyte Compound 111, fasted male beagle dogs, mean; for AUC(0-t): read-out: Compound 111 PK AUClast; for MRT inf: read-out: Compound 111 PK MRTInf; for half-life: read-out: Compound 111 PK t1/2 (converted); for Vd: male, beagle, iv, 5 mg/kg
Method: […]; n=3) and oral (PO) administration (25 mg/kg; n=3) in fasted male beagle dogs.

[10] = Pharmacokinetic study with Compound 224 (IV 2 mg/kg, PO 10 mg/kg); conditions: male, beagle, dog, plasma, analyte Compound 224, fasted male beagle dogs, mean
Method: Analysis time points for the IV arm were 0.083, 0.25, 0.5, 1, 2, 4, 8, 12, 24, 36 and 48 hours post dose and analysis time points for the PO arm were 0.25, 0.5, 1, 2, 4, 8, 12, 24, 36 and 48 hours post dose.

[11] = dog, plasma, IV 5 mg/kg Compound 111
[12] = dog, plasma, oral 25 mg/kg Compound 111

## CC(=O)[C@H]1CC[C@H]2[C@@H]3CC[C@H]4C[C@](C)(OC(=O)CN)CC[C@]4(C)[C@H]3CC[C@]12C [Compound 111]
[1]; pH 7.4, 50 mM phosphate buffer, 16-24 hours, room temperature, read-out: Solubility pH 7.4
  solubility: 29.1 µg/mL (≈ 74.7 µM)
[1]; buffer, pH 2.0, room temperature, read-out: Solubility pH 2.0
  solubility: 1520 µg/mL (≈ 3900 µM)
[2]; SGF with pepsin pH 1.2, 37° C., 60 min
  SGF (% remain, 60 min): 95%
[2]; simulated gi fluid, SGF with pepsin pH 1.2, 37° C., 2 μg/mL, read-out: SGF t1/2
  half-life: 12.4 h
[3]; SIF with pancreatin pH 6.8, 37° C., 60 min
  SIF (% remain, 60 min): 79.0%
[3]; simulated gi fluid, SIF with pancreatin pH 6.8, 37° C., 2 μg/mL, read-out: SIF t1/2
  half-life: 4.27 h
[4]; rat liver microsomes
  Comments: production of GNX (ganaxolone) in rat liver microsomes: In rat no GNX produced;
[4]; rat liver microsomes 0.5 mg/mL, with NADPH, compound 0.5 μM, 37° C., read-out: Rat Liver Microsomal Stability t1/2
  half-life: 5.58 h
[4]; rat liver microsomes 0.5 mg/mL, with NADPH, compound 0.5 μM, read-out: Rat Liver Microsomal Stability CLint (uL/min/mg liver)
  microsomal CLint: 4.13 µL/min/mg
[4]; rat liver microsomes, no NADPH, compound 0.5 μM
  Rat Liver Microsomal Stability no NADPH, % remain 1 h: 99.7%
In vitro [5]; human liver microsomes 0.5 mg/mL, with NADPH, compound 0.5 μM, 37° C., read-out: Human Liver Microsomal Stability t1/2
  half-life: 3.17 h
In vitro [5]; human liver microsomes 0.5 mg/mL, with NADPH, compound 0.5 μM, read-out: Human Liver Microsomal Stability CLint (uL/min/mg liver) (converted)
  microsomal CLint: 7.28 µL/min/mg
In vitro [5]; human liver microsomes, no NADPH, compound 0.5 μM
  Human Liver Microsomal Stability no NADPH, % remain 1 h: 82.6%
[6]; mouse liver microsomes 0.5 mg/mL, compound 0.5 μM, read-out: Mouse Liver Microsomal Stability CLint (uL/min/mg liver)
  microsomal CLint: 11.8 µL/min/mg
[6]; mouse liver microsomes 0.5 mg/mL, compound 0.5 μM, read-out: Mouse Liver Microsomal Stability t1/2
  half-life: 1.97 h
[6]; mouse liver microsomes, no NADPH, 1 h
  Mouse Liver Microsomal Stability no NADPH, % remain 1 h: 92.7%
[7]; dog liver microsomes 0.5 mg/mL, compound 0.5 μM, read-out: Dog Liver Microsomal Stability CLint (uL/min/mg liver)
  microsomal CLint: 4.95 µL/min/mg
[7]; dog liver microsomes 0.5 mg/mL, compound 0.5 μM, read-out: Dog Liver Microsomal Stability t1/2
  half-life: 4.67 h
[7]; dog liver microsomes, no NADPH
  Dog Liver Microsomal Stability no NADPH, % remain 1 h: 92.3%
In vitro [8]; human plasma, 2 μg/mL, 37° C.
  Human plasma t90: 542 min
In vitro [8]; human, plasma
  half-life: 60 h
In vitro [8]; rat plasma, 2 μg/mL, 37° C.
  Rat plasma t90: 132 min
In vitro [8]; rat, plasma
  half-life: 14.6 h
Mouse plasma stability
  Mouse plasma t90: 67.2 min
Mouse plasma stability; read-out: Mouse plasma Half life (t1/2)
  half-life: 7.43 h
Dog plasma stability; dog plasma, 2 μg/mL, 37° C.
  Dog plasma t90: 243 min
Dog plasma stability; dog plasma, 2 μg/mL, 37° C., read-out: Dog plasma Half life (t1/2)
  half-life: 26.8 h
[9]; oral 25 mg/kg Compound 111
  Compound 111 PK AUCInf/D: 68.7 kg·ng·h/mL/mg
[9]; dog, plasma, IV 5 mg/kg Compound 111, read-out: Compound 111 PK AUCinf
  AUC(0-inf): 2790 ng·h/mL
[9]; [11]
  AUC(0-t): 2740 ng·h/mL
  MRT inf: 3.68 h
  half-life: 3.54 h
[9]; dog, plasma, IV 5 mg/kg Compound 111, read-out: Compound 111 PK C0
  C0: 1500 ng/mL
[9]; dog, plasma, IV 5 mg/kg Compound 111, read-out: Compound 111 PK CL
  clearance: 31.7 mL/min/kg
[9]; dog, plasma, oral 25 mg/kg Compound 111, read-out: Compound 111 PK AUCInf
  AUC(0-inf): 1720 ng·h/mL
[9]; [12]
  AUC(0-t): 1570 ng·h/mL
  MRT inf: 10.6 h
  half-life: 7.15 h
[9]; dog, plasma, oral 25 mg/kg Compound 111, read-out: Compound 111 PK Cmax
  Cmax: 177 ng/mL
[9]; dog, plasma, oral 25 mg/kg Compound 111, read-out: Compound 111 PK Tmax
  Tmax: 2.67 h
[9]; dog, plasma, oral 25 mg/kg vs IV 5 mg/kg Compound 111, read-out: Compound 111 PK F (%)
  bioavailability: 11.4%
[9]; dog, plasma, IV 5 mg/kg Compound 111, read-out: Compound 111 PK Vss
  Vd: 6.71 L/kg
[9]; dog, plasma, IV 5 mg/kg Compound 111, read-out: Compound 111 PK Vz
  Vd: 9.47 L/kg

## CC(=O)[C@H]1CC[C@H]2[C@@H]3CC[C@H]4C[C@](C)(OC(=O)COC(=O)C(C)(C)O)CC[C@]4(C)[C@H]3CC[C@]12C [Compound 224]
[2]; simulated gi fluid, 1 h, pH 1.2
  SGF (% remain, 60 min): 88%
[2]; simulated gi fluid, pH 1.2
  half-life: 6.08 h
[3]; simulated gi fluid, 1 h, pH 6.8
  SIF (% remain, 60 min): 60%
[3]; simulated gi fluid, pH 6.8
  half-life: 1.63 h
[4]; rat liver microsomes
  Comments: production of GNX (ganaxolone) in rat liver microsomes: In rat no GNX produced;
[4]; rat, microsomes
  half-life: 0.163 h
  microsomal CLint: 142 µL/min/mg
  Rat Liver Microsomal Stability no NADPH, % remain 1 h: 1.4%
In vitro [5]; human, microsomes
  half-life: 0.0278 h
  microsomal CLint: 828 µL/min/mg
  Human Liver Microsomal Stability no NADPH, % remain 1 h: 0.4%
[7]; dog, microsomes
  half-life: 0.118 h
  microsomal CLint: 196 µL/min/mg
  Dog Liver Microsomal Stability no NADPH, % remain 1 h: 0.6%
In vitro [8]; human
  Human plasma t90: 6.5 min
In vitro [8]; human, plasma
  half-life: 0.717 h
In vitro [8]; rat
  Rat plasma t90: 2.16 min
In vitro [8]; rat, plasma
  Observations: stability / GNX production in rat plasma: GNX produced in rat
  half-life: 0.24 h
Dog plasma stability; dog
  Dog plasma t90: 126 min
Dog plasma stability; dog plasma
  half-life: 14 h
[10]; Compound 224 PK Vss (L/kg)
  Vd: 5.92 L/kg
[10]; Compound 224 PK Vz (L/kg)
  Vd: 16.1 L/kg

From patent US20250034201A1, “PRODRUGS OF GANAXOLONE” (priority 2022, published 2025)
